For orientation: IC50 means the concentration that gives 50% inhibition. As usually defined, the CC50 is the concentration giving 50% cytotoxicity.

The subject of data set [1] is Plasmodium falciparum F32-ART (artemisinin-resistant strain). Put plainly: Standard chemosensitivity assay (SYBR Green I), F32-ART. The data set is classed as cell-based. To be noted: for IC50: read-out: Antiplasmodial Activity: IC50, F32-ART; for Selectivity Index CC50/IC50: ratio cytotoxicity (mammalian cell type of the CC50)/antiplasmodial activity on F32-ART. Here is the method:
(§1) They differ by eight mutations in seven genes (PF3D7_0110400, PF3D7_1343700, PF3D7_0213400, PF3D7_1115700, PF3D7_1302100, PF3D7_1459600, PF3D7_1464500) among them the M476I mutation on the kelch13 gene. F32-ART and F32-TEM strains have RSA^0–3 h values up to 12% and less than 0.1%, respectively. […] Both strains were cultured, in the same conditions, according to the Trager and Jensen protocol with modifications. Briefly, parasites were cultivated in RPMI-1640 medium (Biowest) at 2% hematocrit in human red blood cells and 5% human serum (EFS, French Blood Bank) under 5% CO2 in a humid atmosphere at 37 °C.
(§2) The antimalarial activities of the compounds were evaluated on both strains. […] Antimalarial activities were determined with the SYBR Green I method. Each drug concentration was tested in triplicate. The parasites were incubated with the drugs for 48 h. Plates were read on a BioTek FLX800 Microplate Fluorescence Reader (Bio-Tek instruments, Winooski, VT, USA) (λexcitation = 485 nm, λemission = 528 nm). Control parasite culture (i.e., RPMI with 0.5% DMSO) was referred to as 100% growth. IC50 and IC90 values were determined using GraphPad Prism version 7.05 (GraphPad Software, San Diego, CA, USA). Results were the mean of 3 independent experiments. When it is relevant, statistical significance between results obtained with both parasite strains was determined by a Mann–Whitney test using GraphPad Prism version 7.05.

For data set [2], the system named is Plasmodium falciparum F32-TEM (artemisinin-sensitive twin line). The data set is described as follows: Standard chemosensitivity assay (SYBR Green I), F32-TEM. To be noted: read-out: Antiplasmodial Activity: IC50, F32-TEM. The data set is classed as cell-based. As for the experimental part: as §1, §2
Data set [3] has as its system ART-resistant parasites F32-ART at the quiescent stage. Put plainly: Quiescent-stage Survival Assay (QSA), 48-h exposure. In kind it is cell-based, Plasmodium falciparum. As for the experimental part: The sensitivity of the ART-resistant parasites F32-ART at the quiescent stage towards the different molecules was determined using the QSA (Quiescent-stage Survival Assay), as previously described.
Epidrugs were tested at their IC90 values. In the present study, quiescence was induced using 3 µM of ART or 700 nM of DHA [28]. Thus, D-sorbitol synchronized ring-stage parasites at 3% parasitemia and 2% hematocrit (5 mL of culture per well in 6-well plates) were first exposed to 6 h of ART or DHA to induce quiescence and then to 48 h of the combination “ART or DHA + compound to be tested”. The combinations “ART 6 h/ART 48 h” or “DHA 6 h/DHA 48 h” were used as controls. The compounds were evaluated, in parallel, on proliferating parasites, i.e., without any pre-treatment. After drug exposure, parasite cultures were washed with 40 mL of RPMI-1640 medium and cultured in drug-free conditions supplemented with 10% human serum in new wells. The parasitemia for each condition was then microscopically monitored every 2 days. Culture media were renewed twice a week and 25 µL of fresh red blood cells were added once a week. Obtained data were used to perform Kaplan–Meier survival analyses considering censored data. The outcome was defined as the day when parasite cultures reached the initial parasitemia (3%) and data were considered as censored if no parasite recrudescence was observed during the 30-day experiment timeframe. When relevant, statistical significance between results obtained for the conditions “ART/ART” and “ART/ART + compound to be tested” or “DHA/DHA” and “DHA/DHA + compound to be tested” was determined by a Log Rank (Mantel Cox) test using GraphPad Prism version 7.05. For the best compounds targeting histones, in order to compare western blots data, modified QSAs were carried out by comparing “DHA 6 h/DHA 24 h” versus “DHA 6 h/DHA + compound to be tested 24 h”.

The subject of another data set is H3K4me1. The data set is described as follows: Immunoblotting, histone mark abundance in F32-ART parasites. The data set is classed as cell-based, Plasmodium falciparum. To be noted: 90nM. Here is the method:
(§3) Abundance of methylated and acetylated histone was determined in parasite cultures in different conditions: “not-treated”, “DHA 24 h”, “DHA 6 h/DHA 24 h” and “DHA 6 h/DHA + compound to be tested 24 h”. At the end of the treatments, parasite cultures were washed in RPMI-1640 and then twice in PBS 1× before red blood cell lysis with 0.075% saponin (Sigma-Aldrich) in PBS. Parasite ghosts were washed 3 times in PBS before incubating the ghosts with E1A lysis buffer (50 mM Hepes pH 7.5; 250 mM NaCl; 5 mM EDTA; 0.1% Triton X-100, 1 mM DTT, 0.2 mM PMSF supplemented with complete Mini EDTA-free protease inhibitor cocktail (Roche®, Basel, Switzerland)) for 15 min. Ghosts were then sonicated for 3 × 15s ON/OFF cycles to shear parasite membranes. Debris were pelleted by centrifuging for 15 min at 13,800× g and 4 °C, and supernatants (containing parasitic proteins) were then collected. Protein concentrations were determined using BCA assay (Bio-Rad, Hercules, CA, USA) according to the manufacturer’s instructions. For each sample, 10 µg of proteins were mixed with 4× sample buffer (10 mL 50% Glycerol, 5 mL 0.5 M Tris HCl pH 6.8, 4 mL 20% SDS, 0.02% Bromophenol blue for a total solution volume of 20 mL) and 100 mM DTT and then separated on 15% SDS-PAGE gels in Laemmli running buffer. Gels were then wet-transferred O/N at 20 V onto PVDF membranes. Membranes were blocked in TBST for 1 h at room temperature. Bottom parts were then probed with histone antibodies while upper parts were probed with PFALDOLASE antibody (Abcam, ab38905, Cambridge, UK) at 1:20,000 dilution. The following primary antibodies were used: anti-H3K4me1 (Abcam, ab8895); anti-H3K4me2 (Abcam, ab35356); anti-H3K9me2 (Abcam, ab1220); anti-H3K9me3 (Millipore, 07-442, Burlington, MA, USA); anti-tetra-acetyl H4 (Millipore, 06-866); anti-H4K8Ac (Millipore, 07-328); anti-H4K20me3 (Abcam, ab9053); anti-H3K4me3 (Diagenode) and anti-H3K9Ac (Millipore, 07-352) at 1:10,000. The following secondary antibodies were used: anti-rabbit IgG-Peroxidase produced in goat (Sigma-Aldrich) or anti-mouse IgG-Peroxidase (Sigma-Aldrich); at 1:20,000 dilutions. Blots were developed using ECL Prime Western Blotting (GE Healthcare, Chicago, IL, USA) and read on a Chemidoc touch imaging software. Densitometry analysis was performed by using ImageLab software from Bio-Rad. To determine if variations in histone abundances were statistically significant, immunoblotting experiments were performed on 3 biological replicates and each run was performed twice.

For a further data set, the system named is H3K4me2. The data set is described as above. To be noted: 90nM. The data set is classed as cell-based, Plasmodium falciparum. Here is the method: as §3
A further data set has as its system H3K4me3. Described as above. The data set is classed as cell-based, Plasmodium falciparum. To be noted: 90nM. As for the experimental part: as §3
For another data set, the system named is H4K20me3. The description is as above. The data set is classed as cell-based, Plasmodium falciparum. To be noted: 90nM. Here is the method: as §3
The subject of another data set is HFF. To be noted: read-out: Cytotoxicity: CC50 (HFF), data from literature ref 48; cited from earlier work.
The subject of a further data set is MCF7. To be noted: cited from earlier work.
The mark [4] stands for this setting: Plasmodium falciparum, F32, 48 h.
Where [5] appears, read: 24 h, F32-ART ring stage proliferating, 3 replicates (Fig 3B).
Setting [6] is: DHA 6 h/DHA + BIX-01294 24 h, F32-ART DHA-treated parasites, 3 replicates (Fig 3F).

Where “and” joins values, the source holds several entries; their conditions need not be identical. Equal entries are not always repeated. Where two headings read alike, the source gives them in different places.

On to `COc1cc2nc(N3CCCN(C)CC3)nc(NC3CCN(Cc4ccccc4)CC3)c2cc1OC` [BIX-01294], for which the half-maximal inhibitory concentration (IC50) came to 56 ± 8 nM in data set [1] (setting [4]) and 55 ± 14 nM in data set [2] (setting [4]). Further, the “Selectivity Index CC50/IC50” value in data set [1] is 110. For the same compound, the “Delay in parasite recrudescence time (difference between median recrudescence times), ART/ART + compound vs ART/ART” value in data set [3] (quiescence induced with ART 3 µM 6 h, then 48 h ART + compound at its IC90) is recorded as 8.5 days. Further, the “Delay in recrudescence time, DHA/DHA + compound vs DHA/DHA” value in [3] (quiescence induced with DHA 700 nM 6 h, then 48 h DHA + compound at its IC90) is recorded as “slightly shorter delay”. For the same compound, the “Fold change of H3K4me1 abundance, BIX-01294 vs DMSO” value in the data set on H3K4me1 (setting [5]) was “significantly decreased level and 0.58 and 0.68 and 0.70”. For the same compound, in the data set on H3K4me1 (setting [6]), the “Fold change of H3K4me1 abundance, BIX-01294, quiescent stage” value is “did not induce a quantifiable change and 1.47 and 1.13 and 0.70”. Also, the “Fold change of H3K4me2 abundance, BIX-01294 vs DMSO” value in the data set on H3K4me2 (setting [5]) is “significantly decreased level and 0.66 and 0.68 and 0.73”. In the data set with H3K4me2 (setting [6]), the “Fold change of H3K4me2 abundance, BIX-01294, quiescent stage” value is “did not induce a quantifiable change and 1.57 and 0.88 and 0.79”. The “Fold change of H3K4me3 abundance, BIX-01294 vs DMSO” value with H3K4me3 (setting [5]) was “significantly decreased level and 0.89 and 0.88 and 0.80”. Besides, in the data set with H3K4me3 (setting [6]), the “Fold change of H3K4me3 abundance, BIX-01294, quiescent stage” value was “did not induce a quantifiable change and 1.11 and 1.28 and 0.96”. In addition, the “Fold change of H4K20me3 abundance, BIX-01294 vs DMSO” value in the data set with H4K20me3 (setting [5]) is “significantly decreased level and 0.69 and 0.64 and 0.72”. The “Fold change of H4K20me3 abundance, BIX-01294, quiescent stage” value with H4K20me3 (setting [6]) was “did not induce a quantifiable change and 0.66 and 1.37 and 0.84”. Also, the half-maximal cytotoxic concentration (CC50) in the data set on HFF is 6.1 µM.
For `O=C(CCCCCCC(=O)N[c-]1cccc1)NO.[Fe+2].c1cc[cH-]c1` [JAHA], the half-maximal inhibitory concentration (IC50) in data set [1] (F32-ART, 48 h incubation, SYBR Green I, mean ± SEM of 3 experiments (* mean of 2)) came to 460 ± 30 nM; in data set [2] (F32-TEM, 48 h incubation, SYBR Green I, mean ± SEM of 3 experiments (* mean of 2)), 690 ± 80 nM. In addition, the CC50 with MCF7 (MCF7 cancer, data from literature ref 42, read-out: Cytotoxicity: CC50 (MCF7 cancer)) was 2400 nM.
Regarding `COc1ccc(CN2CCc3ccc(C(=O)NO)cc32)cc1` [PCI 34051], the concentration for half-maximal inhibition (IC50) in data set [1] (Plasmodium falciparum, F32-ART, 48 h incubation, SYBR Green I, mean ± SEM of 3 experiments (* mean of 2)) was determined as 8000 nM; in data set [2] (Plasmodium falciparum, F32-TEM, 48 h incubation, SYBR Green I, mean ± SEM of 3 experiments (* mean of 2)) it was 9000 nM. Further, the “Selectivity Index CC50/IC50” value in data set [1] is above 2.5. In addition, in the data set on MCF7 (MCF7, data from literature ref 45, read-out: Cytotoxicity: CC50 (MCF7)), the half-maximal cytotoxic concentration (CC50) was above 20000 nM.

Values taken from publication PMC10610379, “Epidrugs as Promising Tools to Eliminate Plasmodium falciparum Artemisinin-Resistant and Quiescent Parasites” (Pharmaceutics, 2023).
